The values below come from US20230285457A1, “NANOPARTICLES FOR CANCER TREATMENT” (Universidad de Guadalajara, priority 2019, published 2023).

The data set in a line: Quantification of the DOX encapsulation percentage in the nanoparticle. The format is physicochemical. The note with it: DOX with respect to the mass of PLGA in the nanoparticles; mean ± DE, n = 3. As for the experimental part:
To evaluate the DOX release profile contained in anti-GZMB PLGA/DOX/Ch/ICG NPs, firstly, the quantification of the encapsulation percentage in the nanoparticle was performed by dissolving the PLGA NPs pellet in acetone, quantifying the fluorescence intensity and interpolating fluorescence intensity against DOX standard; this assay was performed in fluorescence plates of 96-well Clear Bottom (Corning®—CLS3904) using excitation and emission at 488 and 560 nm, respectively.

SMILES strings stand for the structures.

Take `COc1cccc2c1C(=O)c1c(O)c3c(c(O)c1C2=O)C[C@@](O)(C(=O)CO)C[C@@H]3O[C@H]1C[C@H](N)[C@H](O)[C@H](C)O1` [DOX, doxorubicin]: the “Encapsulation percentage (w/w)” value is recorded as 7.32 ± 1.4 percentage (w/w).
